Test results from US9862680B2, “Peripherally substituted monocyclic beta-lactams” (University of Notre Dame du Lac, priority 2016, dated 2018).

Legend:
[1] = system: A. Baumannii ATCC 17961; test: Agar diffusion assay (modified Kirby-Bauer); format: cell-based; conditions: 50 μL in 9.0 mm well, P unclear, V very unclear zone, * slightly misshapen zone; for Zone of Growth Inhibition: 2 mM solution
Experimental: (§1) Antibacterial activity of the compounds was determined by a modified Kirby-Bauer^27-28 agar-diffusion assay. Overnight cultures of test organisms were grown in LB broth for 18-24h and standard suspensions of […] were prepared in saline solution (0.9% NaCl) according to a 0.5 BaSO4 McFarland Standard. This standardized suspension (0.1 mL) was added to 34 mL of sterile, Mueller Hinton No. 2 agar tempered to 47-50° C. After gentle mixing, the inoculated agar media was poured into a sterile plastic petri dish (145 mm×20 mm) and allowed to solidify near a flame with the lid cracked for 30 min. Wells of 9.0 mm diameter were cut from the petri dish agar and filled with exactly 50 μL of the test sample solution. For studies using mixtures of compounds, both test compounds were diluted to equal concentrations and 50 μL of the mixed compound solution was added to the cut well. The petri dish was incubated at 37° C. for 18-24 h and the inhibition zone diameters were measured (mm) with an electronic caliper after 24-48 h.
(§2) All compound-containing solutions were prepared by first making a 20 mM solution of the compound in DMSO and then diluting that solution 10-fold with MeOH to give the final 2 mM solution used in the assay.
(§3) Plates were incubated after inoculation at 37° C. for 20 hours. Plates were photographed after 1 day. M. vaccae required a longer incubation time, 48 hours, and was photographed after 3 days.

[2] = system: B. Dolosa AU 0018; test: Agar diffusion assay (modified Kirby-Bauer); format: cell-based; conditions: 2 mM solution, 50 μL in 9.0 mm well, P unclear, V very unclear zone, * slightly misshapen zone
Experimental: as §1, §2, §3

[3] = system: B. Subtilis ATCC 6633; test: Agar diffusion assay (modified Kirby-Bauer); format: cell-based; conditions: 50 μL in 9.0 mm well, P unclear, V very unclear zone, * slightly misshapen zone; for Zone of Growth Inhibition: 2 mM solution
Experimental: as §1, §2, §3

[4] = system: E. Coli DC0; test: Agar diffusion assay (modified Kirby-Bauer); format: cell-based; conditions: 2 mM solution, 50 μL in 9.0 mm well, P unclear, V very unclear zone, * slightly misshapen zone
Experimental: as §1, §2, §3

[5] = system: E. Coli DC2; test: Agar diffusion assay (modified Kirby-Bauer); format: cell-based; conditions: E. Coli DC2, 2 mM solution, 50 μL in 9.0 mm well, P unclear, V very unclear zone, * slightly misshapen zone
Experimental: as §1, §2, §3

[6] = system: M. Luteus ATCC 10240; test: Agar diffusion assay (modified Kirby-Bauer); format: cell-based
Experimental: as §1, §2, §3

[7] = system: M. Vaccae IMET 10670; test: Agar diffusion assay (modified Kirby-Bauer); format: cell-based; conditions: 2 mM solution, 50 μL in 9.0 mm well, 48 hours incubation, P unclear, V very unclear zone, * slightly misshapen zone
Experimental: as §1, §2, §3

[8] = system: P. Aeruginosa K799/wt; test: Agar diffusion assay (modified Kirby-Bauer); format: cell-based; conditions: P. Aeruginosa K799/wt (wild type); 2 mM solution, 50 μL in 9.0 mm well; P unclear, V very unclear zone, * slightly misshapen zone
Experimental: as §1, §2, §3

[9] = system: S. Aureus SG511; test: Agar diffusion assay (modified Kirby-Bauer); format: cell-based; conditions: 2 mM solution, 50 μL in 9.0 mm well, P unclear, V very unclear zone, * slightly misshapen zone
Experimental: as §1, §2, §3

[10] = system: panel of Gram-positive and Gram-negative bacteria; test: Kirby-Bauer agar diffusion assays, results in words; format: cell-based
Experimental: as §1, §2, §3

[11] = system: panel of Gram-positive and Gram-negative bacteria; test: MIC determination; format: cell-based; conditions: same panel of Gram-positive and Gram-negative bacteria, all values
[12] = system: P. Aeruginosa K799/61; test: Agar diffusion assay (modified Kirby-Bauer); format: cell-based; conditions: P. Aeruginosa K799/61 (permeability mutant); 2 mM solution, 50 μL in 9.0 mm well; P unclear, V very unclear zone, * slightly misshapen zone
Experimental: as §1, §2, §3

[13] = target: AmpC; test: β-lactamase inhibition, Ki by enzyme kinetics (nitrocefin); format: biochemical; conditions: class C
Experimental: (§4) The enzymes KPC-2, Oxa-48, AmpC and NDM-1 were purchased from Emerald Bioscience and the enzymes CTX-14 and SHV-12 were expressed and purified from E. coli at Rempex pharmaceutical (San Diego, Calif.).
(§5) To the first row of a 2-mL deep 96-well block was added 1 mL of 50 mM sodium phosphate buffer at pH 7 with 0.1 mg/mL BSA (bovine serum albumin). To the first row was added an appropriate amount of a 10 mg/mL solution of the compound to be tested to make a 640 μM (4×) solution. Each of the other wells in the 96-well block were charged with 750 μL of the aforementioned buffer. The rows were then repeatedly diluted 1:3 so that the final concentrations of the individual 96-well plates would range in concentrations from 160 μM to 3 nM (8 dilutions). The master block was then used to add 50 pt to each corresponding well in the 96-well flat-bottom plate. An additional 50 of buffer was added to each well. Once the plates were prepared, 50 μL of the enzyme to be tested against were added in buffer to each well [KPC-2 (0.147 mg/mL), CTX-M-14 (0.102 mg/mL), […] (0.331 mg/mL), AmpC (0.699 mg/mL), SHV-12 (0.111 mg/mL), NDM-1 (0.110 mg/mL)]. The plates were incubated at rt for 10 min before 50 μL. of an appropriate indicator were added to each well and the optical density at 495 nm was measured over time. For each enzyme, other than NDM-1, nitrocefin was used. Nitrocefin (10 μM for SHV-12, 50 μM for the other enzymes), was appropriate because when cleaved by a β-lactamase, the color changes from yellow to red. For NDM-1, imipenem (10 μM) was the indicator of choice. Rather than observe the growing presence of optical density at 495 nm, as with nitrocefin, the disappearance of imipenem was monitored. The inhibition curves were monitored and used to perform enzyme kinetics according to Waley to determine the Ki (μM) of each compound against the β-lactamases screened.

[14] = target: T1, CTX-M-14 (Escherichia coli, UniProt Q9L5C7); test: as above; format: biochemical; conditions: CTX-M-14, class A
T1 construct: host or cells: E. coli
Experimental: as §4, §5

[15] = target: T2, KPC-2 (Klebsiella pneumoniae, UniProt Q9F663); test: as above; format: biochemical; conditions: KPC-2, class A
T2 construct: purchased Emerald Bioscience
Experimental: as §4, §5

[16] = target: T3, Oxa-48 (Klebsiella pneumoniae, UniProt Q6XEC0); test: as above; format: biochemical; conditions: Oxa-48, class D
T3 construct: purchased Emerald Bioscience
Experimental: as §4, §5

[17] = target: T4, SHV-12 (Klebsiella pneumoniae, UniProt P0AD64, E235K/G234S/L31Q); test: as above; format: biochemical; conditions: SHV-12, class A
T4 construct: host or cells: E. coli
Experimental: as §4, §5

[18] = target: PAM 2035; test: β-lactamase inhibition, Ki by enzyme kinetics; format: biochemical; conditions: PAM 2035, class C
[19] = target: T5, NDM-1 (Klebsiella pneumoniae, UniProt C7C422); test: β-lactamase inhibition, Ki by enzyme kinetics (imipenem); format: biochemical; conditions: NDM-1, class B
T5 construct: purchased Emerald Bioscience
Experimental: as §4, §5

[20] = Escherichia coli, read-out: Zone of Growth Inhibition
[21] = M. Luteus ATCC 10240, 2 mM solution, 50 μL in 9.0 mm well, P unclear, V very unclear zone, * slightly misshapen zone

T4 sequence (P0AD64 22-286 L31Q/G234S/E235K): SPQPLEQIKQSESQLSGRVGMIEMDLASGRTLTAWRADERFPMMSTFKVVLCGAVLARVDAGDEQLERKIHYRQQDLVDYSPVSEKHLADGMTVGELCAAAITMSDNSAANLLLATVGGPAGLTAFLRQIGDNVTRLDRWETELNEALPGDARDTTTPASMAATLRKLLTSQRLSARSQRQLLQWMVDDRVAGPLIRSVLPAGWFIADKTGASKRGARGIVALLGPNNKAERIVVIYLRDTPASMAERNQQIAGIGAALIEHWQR
T5 sequence (C7C422 29-270 limits assumed): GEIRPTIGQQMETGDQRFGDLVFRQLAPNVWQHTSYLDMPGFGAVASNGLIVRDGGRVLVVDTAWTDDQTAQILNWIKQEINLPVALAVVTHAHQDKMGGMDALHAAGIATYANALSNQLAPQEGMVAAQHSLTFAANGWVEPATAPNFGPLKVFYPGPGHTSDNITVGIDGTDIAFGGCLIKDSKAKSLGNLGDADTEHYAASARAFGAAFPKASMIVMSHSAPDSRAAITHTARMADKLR
T1 sequence (Q9L5C7 entry or part of it): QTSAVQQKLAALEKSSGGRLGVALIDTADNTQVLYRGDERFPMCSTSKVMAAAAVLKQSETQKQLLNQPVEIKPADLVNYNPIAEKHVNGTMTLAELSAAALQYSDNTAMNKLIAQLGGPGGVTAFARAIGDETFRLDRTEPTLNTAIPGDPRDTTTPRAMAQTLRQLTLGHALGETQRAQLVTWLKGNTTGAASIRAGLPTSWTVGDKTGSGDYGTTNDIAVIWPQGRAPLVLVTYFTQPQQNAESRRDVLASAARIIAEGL
T2 sequence (Q9F663 25-293 limits assumed): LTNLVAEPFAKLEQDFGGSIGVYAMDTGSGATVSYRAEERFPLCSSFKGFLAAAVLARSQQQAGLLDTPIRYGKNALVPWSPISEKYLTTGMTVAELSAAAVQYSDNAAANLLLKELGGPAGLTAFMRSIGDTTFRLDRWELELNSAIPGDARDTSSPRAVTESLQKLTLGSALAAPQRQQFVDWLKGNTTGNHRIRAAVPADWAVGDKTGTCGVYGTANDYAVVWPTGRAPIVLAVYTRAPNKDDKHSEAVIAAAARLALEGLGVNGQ
T3 sequence (Q6XEC0 23-265 limits assumed): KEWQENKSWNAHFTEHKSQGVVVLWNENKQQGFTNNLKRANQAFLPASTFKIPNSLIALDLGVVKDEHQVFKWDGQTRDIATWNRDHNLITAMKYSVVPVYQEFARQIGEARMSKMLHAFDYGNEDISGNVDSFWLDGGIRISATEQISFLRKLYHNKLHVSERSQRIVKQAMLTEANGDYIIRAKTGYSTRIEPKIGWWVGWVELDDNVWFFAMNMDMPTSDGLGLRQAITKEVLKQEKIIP

Row | Compound | Zone of Growth Inhibition [8] | Zone of Growth Inhibition [1] | Zone of Growth Inhibition [2] | Zone of Growth Inhibition [3] | Zone of Growth Inhibition [4] | Zone of Growth Inhibition [5] | Zone of Growth Inhibition [6, 21] | Zone of Growth Inhibition [7] | Zone of Growth Inhibition [9] | Zone of Growth Inhibition [12] | also measured
1 | CO/N=C(\C(=O)N[C@@H]1C(=O)N(S(=O)(=O)[O-])[C@H]1CSCCNC(=O)OC(C)(C)C)c1cnc(N)s1.[K+] [Compound 43] | 0ppt | – | – | – | – | – | – | – | – | – | zone of inhibition at 2000 µM ([1]; Acinetobacter baumannii, ATCC17961, 2 mM solution, read-out: Zone of Growth Inhibition): 0 mm; zone of inhibition at 2000 µM ([2]; Burkholderia dolosa, read-out: Zone of Growth Inhibition): 0 mm; zone of inhibition at 2000 µM ([3]; Bacillus subtilis, ATCC6633, 2 mM solution, read-out: Zone of Growth Inhibition): 18 mm; zone of inhibition at 2000 µM [4, 20]: 0 mm; zone of inhibition at 2000 µM [5, 20]: 29 mm; zone of inhibition at 2000 µM ([6]; Micrococcus luteus, ATCC10240, M. Luteus ATCC 10240, 2 mM solution, 50 μL in 9.0 mm well, P unclear, V very unclear zone, * slightly misshapen zone, read-out: Zone of Growth Inhibition): 0 mm; zone of inhibition at 2000 µM ([7]; Mycolicibacterium vaccae, read-out: Zone of Growth Inhibition): 0 mm; zone of inhibition at 2000 µM ([9]; Staphylococcus aureus, read-out: Zone of Growth Inhibition): 0 mm; antibacterial activity ([10]; against B. subtilis and the permeability mutant forms of P. aeruginosa and E. coli): moderate activity; antibacterial activity ([10]; corresponding wild strains of P. aeruginosa and E. coli): inactivity; MIC [11]: > 50 µM
2 | CC(C)(ON=C(C(=O)NC1C(=O)N(S(=O)(=O)[O-])C1CSCCN)c1cnc(N)s1)C(=O)O.[K+] (racemic) [Compound 48] | 18P | 12P | 15 mm | 0 mm | 26 mm | 28 mm | 26P | 0 mm | 0 mm | – | antibacterial activity ([6]; on the Gram-positive M. luteus): very interesting activity; antibacterial activity against Gram-negative bacteria ([10]; agar diffusion, Gram-negative bacteria): very interesting activity
3 | O=C1CC(CBr)N1OS(=O)(=O)c1ccc([N+](=O)[O-])cc1 (stereo not shown) [Compound 61e] | 0 mm | 0 mm | 0 mm | – | 0 mm | 0 mm | 0 mm | 0 mm | 0 mm | 12.6* mm | –
4 | CN(C)c1cccc2c(S(=O)(=O)ON3C(=O)CC3CBr)cccc12 (stereo not shown) [Compound 61h] | 0 mm | 0 mm | 0 mm | – | 0 mm | 0 mm | – | – | 15* mm | 0 mm | –
5 | O=C1CC(CBr)N1OS(=O)(=O)c1ccc([N+](=O)[O-])cc1[N+](=O)[O-] (stereo not shown) [Compound 61f] | 0 mm | 16V | 0 mm | 22 mm | 0 mm | 16P | 18P | 28 mm | 21P | 0 mm | –
6 | Cc1ccc(S(=O)(=O)ON2C(=O)CC2CBr)cc1 (stereo not shown) [Compound 61g] | 0 mm | 13.5 mm | 0 mm | 0 mm | 0 mm | 0 mm | 16P | 19V | 18V | 0 mm | –
7 | COC(=O)CSCC1C(NC(=O)Cc2ccccc2)C(=O)N1S(=O)(=O)[O-].[K+] (racemic) [Compound 29] | – | – | – | – | – | – | – | – | – | – | antibacterial activity ([10]; agar diffusion, overall): did not show any activity
8 | CC(C)c1cc(C(C)C)c(S(=O)(=O)ON2C(=O)CC2CBr)c(C(C)C)c1 (stereo not shown) [Compound 61d] | 0 mm | 0 mm | 0 mm | – | 0 mm | 0 mm | – | – | – | 0 mm | Ki [13]: > 160 µM; Ki [14]: > 160 µM; Ki [15]: > 160 µM; Ki [16]: > 160 µM; Ki [17]: > 160 µM; Ki [18]: > 160 µM; Ki [19]: > 160 µM
